# Laboratory results from patent US9566264B2, “Combinations and methods” (Euthymics Bioscience, Inc., priority 2013, dated 2017).
# Structures can show the parent of a compound that is named as a salt. Where two headings read alike, the source gives them in different places.
# Key:
# human hepatocytes [1] = conditions: male, 4 h
# Description: (§1) Cryopreserved human hepatocytes (male) that are prepared by XenoTech, LLC (Lenexa, Kans.), are thawed on the day of use and resuspended in Waymouth's incubation media. The enzymatic activity of hepatocytes is monitored using 7-ethoxycoumarin and 7-hydroxycoumarin as substrates. […] The incubations are carried out for 4 hours with 1×10^6 viable cells/ml. […] At 0 and 4 hour, cell suspensions are extracted using two volumes of ice cold methanol. After centrifugation, the extracts are stored at −20° C. until further sample processing. The solvent in the samples are dried under a stream of nitrogen, and resuspended in methanol:water (1:1) before analysis.
# (§2) The extracts of the 4 hour incubation mixture are analyzed by liquid chromatography/electrospray ionization-mass spectrometry (LC/ESI-MS) in the positive and negative ion modes to screen for possible metabolites. […] The same instrumentation and methods in HPLC Method 1 are used in HPLC Method 2 with the exception that the mobile phases and gradient are 0.4% HCOOH in H2O for mobile A and CH3OH for mobile phase B. The mass spectrometer is LCQ™ Ion Trap Mass Spectrometer and is in either the positive or negative electrospray mode with the ion spray set at 4.5 kV. The capillary temperature is 250° C., the nitrogen sheath gas flow rate is ˜80 unit, the auxiliary nitrogen gas flow rate is 20 unit, and the collision gas is helium.
# human hepatocytes [2] = test: In vitro metabolism in human hepatocytes; conditions: 100 μM, 4 hours incubation
# Description: as §1, §2
# CYP2C19 = CYP2C19 (Homo sapiens, UniProt P33261); test: Inhibition of human CYP activity in microsomes: (S)-mephenytoin 4′-hydroxylation; conditions: pooled human liver microsomes, 10 to 30 min at 37° C.
# Sequence of CYP2C19 (P33261 whole entry): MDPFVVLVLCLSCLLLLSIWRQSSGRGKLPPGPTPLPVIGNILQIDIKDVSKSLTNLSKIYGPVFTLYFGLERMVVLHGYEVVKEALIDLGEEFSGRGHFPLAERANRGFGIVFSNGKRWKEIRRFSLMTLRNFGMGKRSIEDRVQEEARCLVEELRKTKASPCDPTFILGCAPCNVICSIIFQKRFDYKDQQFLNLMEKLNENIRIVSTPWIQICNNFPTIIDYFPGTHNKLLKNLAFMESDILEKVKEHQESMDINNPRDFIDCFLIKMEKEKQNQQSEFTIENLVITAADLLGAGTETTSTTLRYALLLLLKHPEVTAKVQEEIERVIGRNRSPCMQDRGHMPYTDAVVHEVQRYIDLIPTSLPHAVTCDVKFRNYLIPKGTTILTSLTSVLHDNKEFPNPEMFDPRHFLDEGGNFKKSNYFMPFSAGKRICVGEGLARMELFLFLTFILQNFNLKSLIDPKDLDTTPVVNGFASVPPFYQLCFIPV
# Caco-2 cells = test: Caco-2 bi-directional permeability assay; format: in vitro ADME, human
# Description: Caco-2 cells are obtained from American Type Culture Collection (ATCC, Manassas, Va.) and are grown to confluence for 14-21 days on 1 μm filters in 24 well plates. […] Receiver solutions consist of buffer only. Sequential samples of transported solute are taken at 20 minute intervals in duplicate over 2 hours and the concentration of the transported compound is determined by HPLC-UV/MS. Test sample concentration is determined by LC/MS. Permeability coefficients are calculated for each sampling interval, and averages from the intervals are determined. The apparent permeability coefficient Papp is calculated from the equation
# [formula] where dQ/dt is the rate of permeation of drug across the cells, C0 is the original concentration in donor compartment at time zero, and A is the area of the cell monolayer. Mass balance in the system is ascertained by comparing the sum of transported solute and remaining donor solute to the starting solution concentration.
# [3] = Flavin monooxygenase (FMO)-dependent lactam formation screening (pre-incubation temperature); format: in vitro ADME, human; conditions: for formation: area under the curve ratio of analyte to internal standard bicifadine-d5: 1 mM NADPH, mean ± SD; for formation after 37° C. pre-incubation versus 45° C. pre-incubation: 5 minute pre-incubation
# Description: FMOs, but not CYP enzymes, are sensitive to elevated incubation temperature. Thus, to determine if the formation of the lactam metabolite is mediated by FMOs and/or CYPs, the effect of pre-incubation temperature on the lactam formation is conducted by XenoBiotic Laboratories, Inc. (Plainsboro, N.J.). […] The incubation of benzydamine (positive control, 200 μM) is carried out concurrently. The samples are analyzed using LC-MS/MS (see NADPH-dependent lactam formation methodology).
# [4] = Human plasma protein binding (ultrafiltration); format: in vitro ADME
# Description: Samples of test drug in triplicate are mixed and incubated in Millipore Multiscreen filter plates with Ultracel-10 regenerated cellulose membranes for 60 minutes at 37° C. Following incubation, samples undergo centrifugation for 60 minutes at 2000×g and the filtrate is collected. Percent protein bound is determined from the concentration of free compound present in the filtrate following comparison to a standard curve of test drug. […] The flow rate is 1 ml/min and the column temperature is maintained at 50° C. The solvent is a gradient of solvent A composed of 0.1% formic acid in water and solvent B composed of acetonitrile with 0.07% formic acid.
# [5] = NADPH-dependent lactam formation in human liver microsomes; format: in vitro ADME; conditions: for formation: area under the curve ratio of analyte to internal standard bicifadine-d5: 10 μM parent, 30 minutes, mean ± SD
# Description: The effect of NADPH on lactam formation ((1S,5R)-5-(3,4-dichlorophenyl)-3-azabicyclo[3.1.0]hexan-2-one hydrochloride, Compound 2) is conducted by XenoBiotic Laboratories, Inc. (Plainsboro, N.J.). […] Bicifadine ((±)-1-(4-methylphenyl)-3-azabicyclo-[3.1.0]hexane HCl) (10 μM) is used as a positive control and the formation of the lactam metabolite of bicifadine (designated M12) is also monitored. Negative controls are determined by incubation of amitifadine and bicifadine in the absence of liver enzymes. The samples are analyzed using LC-MS/MS.
# The system controller for the HPLC system is a Shimadzu SCL-10Avp, the pump model is a Shimadzu LC-10Avp, and the autosampler model is Shimadzu HTA. The analytical column is Phenomenex Luna C18 5 μm 50×2.0 mm which is set at room temperature and the autosampler is also at room temperature. The injection volume is 5 μl. Mobile phase A is 0.05% formic acid in water and mobile phase B is 0.05% formic acid in acetonitrile. The flow rate is 0.7 ml/minute and run time is 5 minutes. The mass spectrometer is an AB MDX Sciex API-4000 run in the turbo ion spray (ESI) positive ion detection mode and the scan mode is multiple reaction monitoring (MRM). The optimized mass spectrometry conditions are ion spray at 5000 V, curtain gas 10 units temperature 500° C., entrance potential 10 V, collision gas 6 units, and gas 1 and 2 each 50 units.
# [6] = MAO phenotyping with MAO inhibitors in human liver mitochondria; format: in vitro ADME; conditions: 1 μM parent, 30 minutes at 37° C.
# Description: A study on the role of monoamine oxidases involved in the formation of the lactam metabolite is conducted by XenoBiotic Laboratories, Inc. (Plainsboro, N.J.).
# [7] = Brain and plasma levels of amitifadine and lactam metabolite Compound 2 in rat; format: in vivo; design: plasma level, mean±SEM: unit not given here; conditions: for plasma level, mean±SEM: amitifadine 10 mg/kg po
# Description: The studies are conducted in accordance with the Institutional Animal Care and Use Committee guidelines. […] At 0.5, 1, 2, and 4 hour after dosage, animals are briefly anesthetized in a chamber containing 4% isoflurane and rapidly decapitated. Trunk blood is collected in heparinized tubes (9 units/ml whole blood), immediately chilled to 4° C., centrifuged, and the plasma is frozen at −80° C. until analyzed. Brains are quickly removed, bisected along the midline, and frozen at −80° C. until analyzed.
# Plasma and brain samples are allowed to thaw on ice and are homogenized in a 20 ml glass vial in two volumes of ice cold water using a handheld homogenizer (VDI 12, VWR International). Standard curves are prepared in water, control plasma, and control brain homogenate. Equal volumes (100 μl) of plasma or brain homogenate samples, distilled water and internal standard are mixed in 1.5 ml polypropylene tubes and 300 μl of acetonitrile is added to each mixture. Samples are then mixed thoroughly by placing on a shaker at 200 RPM for 40 minutes at room temperature. The samples are then centrifuged at 10,000×g for 10 minutes at 4° C. and the supernatant (200 μl) is transferred to a tube containing 2 μl of 10% formic acid. The samples are subjected to a Zorbax SBC18 Solvent Saver Plus 3.0×150 mm 3.5-μm column on a Shimadzu Prominence LC. […] The concentration of compound in the column effluent is measured using an Applied Biosystems API-3200 triple quadrupole mass spectrometer.
# monoamine transporters = test: Affinity for monoamine transporters; format: binding
# CYP2B6 = biological target: T1, CYP2B6 (Homo sapiens, UniProt P20813); test: Inhibition of human CYP activity in microsomes: bupropion hydroxylation; conditions: pooled human liver microsomes, 10 to 30 min at 37° C.
# T1 sequence (P20813 1-491): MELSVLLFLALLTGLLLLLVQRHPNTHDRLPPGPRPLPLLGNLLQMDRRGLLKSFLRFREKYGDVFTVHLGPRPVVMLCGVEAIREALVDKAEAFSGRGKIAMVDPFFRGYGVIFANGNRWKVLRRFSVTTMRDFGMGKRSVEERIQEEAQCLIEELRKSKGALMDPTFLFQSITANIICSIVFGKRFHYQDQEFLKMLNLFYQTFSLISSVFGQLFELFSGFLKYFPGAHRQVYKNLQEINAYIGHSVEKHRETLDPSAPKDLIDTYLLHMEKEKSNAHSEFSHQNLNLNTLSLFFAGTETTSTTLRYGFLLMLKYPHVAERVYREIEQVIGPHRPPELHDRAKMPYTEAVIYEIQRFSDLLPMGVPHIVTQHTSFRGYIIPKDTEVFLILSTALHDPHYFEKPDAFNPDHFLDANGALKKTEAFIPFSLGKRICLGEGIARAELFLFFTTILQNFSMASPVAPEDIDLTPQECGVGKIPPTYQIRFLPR
# [8] = human, Caco-2, 2 h, 10 μM, pH 7.4
# [9] = microsomes pre-incubated at 37° C. for 5 minutes
# [10] = microsomes pre-incubated at 45° C. for 5 minutes
# [11] = male, Sprague-Dawley, brain/plasma, po, 10 mg/kg, read-out: brain to plasma ratio
molecule,measurement,setting,value
"CCOc1ccc2ccc(=O)oc2c1 [7-ethoxycoumarin, reference compound]",metabolized after incubation,human hepatocytes [1]; 100 μM,68.9%
O=c1ccc2ccc(O)cc2o1 [7-hydroxycoumarin],metabolized after incubation,human hepatocytes [2],99.1%
"CC[C@@]1(c2ccccc2)C(=O)NC(=O)N(Cc2ccccc2)C1=O [(R)-N-3-benzyl-Phenobarb-ital, (R)—N-3-benzylphenobarbital]",IC50,CYP2C19,300 nM
"Clc1ccc([C@]23CNC[C@H]2C3)cc1Cl [Amitifadine, (1R,5S)-(+)-1-(3,4-dichlorophenyl)-3-azabicyclo[3.1.0]hexane hydrochloride]",Mass balance % AP→BL,Caco-2 cells; [8],62%
same,Mass balance % BL→AP,Caco-2 cells; [8],88%
same,parent remaining unchanged after incubation,human hepatocytes [1]; 87 μM,82.4%
"C[N+](C)([O-])CCCOc1nn(Cc2ccccc2)c2ccccc12 [Benzydamine N-oxide, reference compound]",formation: area under the curve ratio of analyte to internal standard bicifadine-d5,[3]; [9],35.70 ± 0.86
same,formation: area under the curve ratio of analyte to internal standard bicifadine-d5,[3]; [10],7.68 ± 1.51
same,formation after 37° C. pre-incubation versus 45° C. pre-incubation,[3],4.6 fold
Cn1c(=O)c2c(ncn2C)n(C)c1=O [Caffeine],"fraction unbound at 60 min, 1 μM","[4]; 1 μM, mean and SEM of triplicate, read-out: % Bound (converted)",0.73
same,"fraction unbound at 60 min, 10 μM","[4]; 10 μM, mean and SEM of triplicate, read-out: % Bound (converted)",0.641
same,fraction unbound at 60 min,[4]; average of 1 and 10 μM,0.685
"O=C1NC[C@]2(c3ccc(Cl)c(Cl)c3)C[C@H]12 [Compound 2, (1S,5R)-5-(3,4-dichlorophenyl)-3-azabicyclo[3.1.0]hexan-2-one hydrochloride]",formation: area under the curve ratio of analyte to internal standard bicifadine-d5,[5]; 0 mM NADPH at 37° C,0.04 ± 0.00
same,formation: area under the curve ratio of analyte to internal standard bicifadine-d5,[5]; 1 mM NADPH at 37° C.,0.08 ± 0.01
same,quantity formed in presence of NADPH versus absence of NADPH,[5]; 1 mM vs 0 mM NADPH,2 fold
same,formation: area under the curve ratio of analyte to internal standard bicifadine-d5,[3]; [9],0.05 ± 0.01
same,formation: area under the curve ratio of analyte to internal standard bicifadine-d5,[3]; [10],0.06 ± 0.01
same,formation after 37° C. pre-incubation versus 45° C. pre-incubation,[3],did not alter
same,effect of MAO-A inhibitor clorgyline on lactam formation,[6],concentration-dependently decreased
same,effect of MAO-B inhibitor selegiline on lactam formation,[6],did not have an effect
same,"plasma level, mean±SEM",[7]; 0.5 hours,1153±610
same,"plasma level, mean±SEM",[7]; 1 hour,1620±303
same,"plasma level, mean±SEM",[7]; 2 hours,3831±1127
same,"plasma level, mean±SEM",[7]; 4 hours,8896±794
same,Kp at 0.5 h,[7]; [11],1.1
same,Kp at 1 h,[7]; [11],1.3
same,Kp at 2 h,[7]; [11],1.4
same,Kp at 4 h,[7]; [11],1.7
same,affinity for monoamine transporters,monoamine transporters,low affinity
"CC(Nn1nnc2ccccc21)c1ccccc1 (stereo not drawn) [N-(α-methylbenzyl)-1-AB, N-(α-methylbenzyl)-1-aminobenzotriazole]",IC50,CYP2B6,60 nM
Lucifer yellow [reference compound],transfer across Caco-2 monolayer (integrity),Caco-2 cells; Caco-2,≤ 0.05%
